Measurements reported in US20250114345A1, “COMPOUNDS AND COMPOSITIONS AS CBP/P300 DEGRADERS AND USES THEREOF” (Oncopia Therapeutics, Inc. d/b/a/ SK Life Science Labs, priority 2023, published 2025).

Target: T1, p300 (Homo sapiens, UniProt Q09472)
T1 construct: host or cells: A549 P300 HiBit cells
Assay: P300 degradation, HiBit technology in A549 P300 HiBit cells (2 h)
Assay type: cell-based
Conditions: 2 hrs post treatment; for Dmax: A549, A549 P300 HiBit cells; for DC50: A549 P300 HiBit cells
Description: p300 and CBP degradation potency and Dmax were determined using in cell western (ICW) assay technology in H1299 cells or HiBit technology in A549 HiBit cells.
A549 P300 HiBit and A549 CBP HiBit cells were plated in separate 384-well, TC treated, white-opaque, flat-bottomed microplate. Cells were plated at a cell density of 0.2×10^4 cells per well in assay media comprised of F-12K, 10% heat inactivated FBS, and 1% penicillin/streptomycin. Assay microplates containing HiBit cells were placed in a 37° C., 5% CO2, tissue culture incubator and left to equilibrate overnight. The next day cells were treated with serial dilutions of test compound made up of 10 mM stock solutions in DMSO. 384-Well plates containing treated cells were then placed back into a 37° C., 5% CO2, tissue culture incubator. Assay microplates containing A549 P300 HiBit cells were incubated for 2 hrs post treatment before P300 destruction was assessed, while microplates containing A549 CBP HiBit cells were incubated for 24 hrs post treatment before CBP destruction was determined. On the day of each assay time point, microplates were removed from the tissue culture incubator and prepared HiBit Lytic detection buffer (Promega, cat #N3O40) was added to each plate. Plates were covered with aluminum foil and incubated for ten minutes at room temperature on an orbital shaker. After incubation, luminescent signal of each plate was measured using the Envision instrument (Perkin Elmer).

T1 sequence (Q09472 whole entry): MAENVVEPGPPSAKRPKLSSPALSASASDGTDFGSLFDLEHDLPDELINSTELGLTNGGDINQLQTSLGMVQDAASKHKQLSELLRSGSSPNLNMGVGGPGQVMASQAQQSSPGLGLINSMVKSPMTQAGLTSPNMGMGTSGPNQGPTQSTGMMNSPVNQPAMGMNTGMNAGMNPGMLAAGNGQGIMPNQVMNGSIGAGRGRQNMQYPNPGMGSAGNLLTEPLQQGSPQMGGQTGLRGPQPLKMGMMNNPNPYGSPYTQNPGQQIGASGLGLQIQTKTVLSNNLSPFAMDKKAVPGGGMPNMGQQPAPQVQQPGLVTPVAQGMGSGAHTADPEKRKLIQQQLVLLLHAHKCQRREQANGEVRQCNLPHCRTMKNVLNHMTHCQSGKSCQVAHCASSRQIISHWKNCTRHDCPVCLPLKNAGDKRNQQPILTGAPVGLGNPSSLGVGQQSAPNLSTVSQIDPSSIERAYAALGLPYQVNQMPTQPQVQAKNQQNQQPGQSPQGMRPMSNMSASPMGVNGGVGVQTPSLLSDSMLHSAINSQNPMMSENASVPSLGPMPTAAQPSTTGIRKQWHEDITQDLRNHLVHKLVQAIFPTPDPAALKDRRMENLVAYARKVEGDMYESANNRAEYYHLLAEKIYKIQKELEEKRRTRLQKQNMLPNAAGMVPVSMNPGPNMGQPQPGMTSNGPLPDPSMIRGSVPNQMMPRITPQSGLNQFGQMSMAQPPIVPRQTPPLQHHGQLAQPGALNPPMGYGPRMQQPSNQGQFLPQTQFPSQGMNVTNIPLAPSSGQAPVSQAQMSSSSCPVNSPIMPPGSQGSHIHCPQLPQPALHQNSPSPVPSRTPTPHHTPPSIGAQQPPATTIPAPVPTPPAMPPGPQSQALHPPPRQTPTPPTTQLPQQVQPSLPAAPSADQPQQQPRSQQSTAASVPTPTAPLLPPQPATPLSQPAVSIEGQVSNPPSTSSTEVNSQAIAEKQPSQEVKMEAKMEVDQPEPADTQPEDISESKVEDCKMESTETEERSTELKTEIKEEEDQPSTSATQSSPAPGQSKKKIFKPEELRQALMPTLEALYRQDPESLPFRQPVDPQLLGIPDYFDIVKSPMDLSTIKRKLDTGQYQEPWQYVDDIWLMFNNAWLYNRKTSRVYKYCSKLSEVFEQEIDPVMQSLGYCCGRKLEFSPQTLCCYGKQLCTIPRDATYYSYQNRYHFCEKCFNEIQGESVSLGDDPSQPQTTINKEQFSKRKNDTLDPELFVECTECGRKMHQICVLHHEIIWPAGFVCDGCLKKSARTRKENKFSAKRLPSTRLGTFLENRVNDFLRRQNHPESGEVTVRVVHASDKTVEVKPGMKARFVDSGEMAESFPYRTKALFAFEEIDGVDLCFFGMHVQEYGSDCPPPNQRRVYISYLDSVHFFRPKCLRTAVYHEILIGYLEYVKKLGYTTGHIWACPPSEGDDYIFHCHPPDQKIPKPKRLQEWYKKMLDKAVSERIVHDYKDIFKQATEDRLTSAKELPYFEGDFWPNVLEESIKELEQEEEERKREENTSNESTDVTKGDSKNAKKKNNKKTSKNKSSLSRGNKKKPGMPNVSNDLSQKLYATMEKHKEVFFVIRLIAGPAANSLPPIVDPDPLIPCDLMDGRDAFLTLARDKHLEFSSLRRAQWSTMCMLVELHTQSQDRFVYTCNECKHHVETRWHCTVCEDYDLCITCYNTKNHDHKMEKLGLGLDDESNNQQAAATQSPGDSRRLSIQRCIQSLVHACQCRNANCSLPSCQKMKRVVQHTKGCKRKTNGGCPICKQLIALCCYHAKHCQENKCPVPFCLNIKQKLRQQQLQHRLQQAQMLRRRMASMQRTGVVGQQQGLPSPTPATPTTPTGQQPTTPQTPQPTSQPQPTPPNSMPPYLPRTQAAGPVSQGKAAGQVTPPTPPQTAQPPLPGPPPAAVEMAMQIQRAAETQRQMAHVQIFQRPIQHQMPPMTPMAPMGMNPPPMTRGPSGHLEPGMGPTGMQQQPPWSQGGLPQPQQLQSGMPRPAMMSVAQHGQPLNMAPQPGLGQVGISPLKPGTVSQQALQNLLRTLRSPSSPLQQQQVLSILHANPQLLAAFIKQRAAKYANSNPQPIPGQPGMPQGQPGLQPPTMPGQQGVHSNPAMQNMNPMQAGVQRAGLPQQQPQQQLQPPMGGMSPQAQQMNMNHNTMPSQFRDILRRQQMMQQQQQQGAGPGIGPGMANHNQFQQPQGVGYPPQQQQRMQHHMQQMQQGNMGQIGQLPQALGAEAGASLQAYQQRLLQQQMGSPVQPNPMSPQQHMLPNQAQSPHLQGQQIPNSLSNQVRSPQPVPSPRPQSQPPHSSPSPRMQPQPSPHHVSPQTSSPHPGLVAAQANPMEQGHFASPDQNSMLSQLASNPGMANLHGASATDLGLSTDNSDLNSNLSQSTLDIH

| SMILES | Dmax | DC50 |
| --- | --- | --- |
| CC(C)c1cc(-c2cccc3cc(-c4ccc(C(=O)NCC#Cc5cnc6cnn(C7CCC(=O)NC7=O)c6c5)nc4)ncc23)cc2c1n(C)c(=O)n2C (stereo not shown) [Example A20, N-(3-(1-(2,6-Dioxopiperidin-3-yl)-1H-pyrazolo[4,3-b]pyridin-6-yl)prop-2-yn-1-yl)-5-(8-(7-isopropyl-1,3-dimethyl-2-oxo-2,3-dihydro-1H-benzo[d]imidazol-5-yl)isoquinolin-3-yl)picolinamide] | 60 to 79% | 1 to 9.9 nM |
| Cc1cc2c(N3CCCc4nc(-c5ccc(C(=O)NCC#Cc6ccc7occ(C8CCC(=O)NC8=O)c7c6)nc5)ncc43)cc(C3CCN(C(=O)C4CCOCC4)CC3)cc2n(C)c1=O (stereo not shown) [Example B150, 5-(5-(1,3-dimethyl-2-oxo-7-(1-(tetrahydro-2H-pyran-4-carbonyl)piperidin-4-yl)-1,2-dihydro-quinolin-5-yl)-5,6,7,8-tetrahydropyrido[3,2-d]pyrimidin-2-yl)-N-(3-(3-(2,6-dioxopiperidin-3-yl)benzofuran-5-yl)prop-2-yn-1-yl) picolinamide] | 60 to 79% | 1 to 9.9 nM |
| Cn1c(=O)oc2ccc(-c3cccc4cc(-c5ccc(C(=O)NCC#Cc6ccc7occ(C8CCC(=O)NC8=O)c7c6)nc5)ncc34)cc21 (stereo not shown) [Example A101, N-(3-(3-(2,6-dioxo-piperidin-3-yl)benzofuran-5-yl)prop-2-yn-1-yl)-5-(8-(3-methyl-2-oxo-2,3-dihydrobenzo[d]oxazol-5-yl)isoquinolin-3-yl)picolinamide] | < 20% | > 1000 nM |
| Cc1cc2c(N3CCCc4cc(-c5ccc(C(=O)NCC#Cc6ccc7occ(C8CCC(=O)NC8=O)c7c6)nc5)c(F)cc43)cccc2n(C)c1=O (stereo not shown) [Example B129, N-(3-(3-(2,6-dioxopiperidin-3-yl)benzofuran-5-yl)prop-2-yn-1-yl)-5-(7-fluoro-1′,3′-dimethyl-2′-oxo-1′,2′,3,4-tetrahydro-2H-[1,5′-biquinolin]-6-yl)picolinamide] | > 80% | 1 to 9.9 nM |
| CN1C(=O)C(C)(C)c2cc(-c3cccc4cc(-c5ccc(C(=O)NCC#Cc6ccc7occ(C8CCC(=O)NC8=O)c7c6)nc5)ncc34)ccc21 (stereo not shown) [Example A130, N-(3-(3-(2,6-dioxo-piperidin-3-yl)benzo-furan-5-yl)prop-2-yn-1-yl)-5-(8-(1,3,3-trimethyl-2-oxoindolin-5-yl)isoquinolin-3-yl)picolinamide] | 20 to 39% | 10 to 99 nM |
| CC(C)c1cc(-c2cccc3cc(-c4ccc(C(=O)NCC#Cc5cnc6occ(C7CCC(=O)NC7=O)c6c5)nc4)ncc23)cc2c1n(C)c(=O)n2C (stereo not shown) [Example A196, N-(3-(3-(2,6-dioxo-piperidin-3-yl)furo[2,3-b]pyridin-5-yl)prop-2-yn-1-yl)-5-(8-(7-isopropyl-1,3-dimethyl-2-oxo-2,3-dihydro-1H-benzo[d]imidazol-5-yl)isoquinolin-3-yl)picolinamide] | > 80% | 1 to 9.9 nM |
| Cc1cc(-c2ncc3c(n2)CCCN3c2ccc3c(c2)n(C)c(=O)n3C)cnc1C(=O)NCC#Cc1cc2c(C3CCC(=O)NC3=O)cccc2o1 (stereo not shown) [Example A231, 5-(5-(1,3-dimethyl-2-oxo-2,3-dihydro-1H-benzo[d]imidazol-5-yl)-5,6,7,8-tetra-hydropyrido[3,2-d]pyrimidin-2-yl)-N-(3-(4-(2,6-dioxo-piperidin-3-yl)benzofuran-2-yl)prop-2-yn-1-yl)-3-methylpicolinamide] | > 80% | 1 to 9.9 nM |
| Cc1nc(-c2ncc(N(C)c3cc(C4CCOCC4)c4c(c3)n(C)c(=O)n4C)cn2)cnc1C(=O)NCC#Cc1cc2c(C3CCC(=O)NC3=O)cccc2o1 (stereo not shown) [Example A187, 5-(5-((1,3-dimethyl-2-oxo-7-(tetrahydro-2H-pyran-4-yl)-2,3-dihydro-1H-benzo[d]imidazol-5-yl)(methyl)amino)pyrimidin-2-yl)-N-(3-(4-(2,6-dioxopiperidin-3-yl)benzofuran-2-yl)prop-2-yn-1-yl)-3-methylpyrazine-2-carboxamide] | > 80% | 1 to 9.9 nM |
